Data reported in article PMC11009625, “Antibiotic class with potent in vivo activity targeting lipopolysaccharide synthesis in Gram-negative bacteria” (Proceedings of the National Academy of Sciences of the …, 2024).
Values after ≈ are worked out from the molar mass of the structure shown. Where two headings read alike, the source gives them in different places.

Assays:
[1] = Safety testing in mice; assay type: in vivo; conditions: intravenous 50 mg/kg and subcutaneous 100 mg/kg
Method: PK and safety studies were done the Latvian Institute for Organic Synthesis (Riga, Latvia) and in vivo efficacy studies were done at Statens Serum Institut (Copenhagen, Denmark). Assays were done in accordance with the relevant permits at the respective sites (SI Appendix). For PK studies, plasma samples were taken from mice dosed subcutaneously and the samples were analyzed by UPLC/MS/MS. For in vivo efficacy studies, neutropenic mice were infected intraperitoneally with 10^6 bacteria and treated with subcutaneously with test compounds 1 h after infection. The mice were euthanized 4 h after treatment and serially diluted samples of blood and peritoneal fluid were plated onto blood agar plates. Complete experimental details available in SI Appendix.
Lantmännen) and water. […]
Safety testing in mice. […] Mice were extensively observed and toxicity signs were scored after 0-2, 5, […]
Plasma sample analysis by UPLC/MS/MS. Concentrations of EBL-3599 and EBL-3647 in mouse blood plasma were measured by liquid chromatography tandem mass spectrometry (LC/MS/MS) in positive electrospray ionization (ESI+) in multi reaction monitoring (MRM) mode. […]
A sample volume of 20 μL was transferred into a plastic tube and mixed with 300μL acetonitrile/methanol mixture (3:1, v/v) to precipitate proteins. […] Bioanalysis of samples from each mouse were measured in duplicate and the results averaged. […]

[2] = system: clinical E. coli isolates (n=111); test: MIC distribution and MIC90, clinical E. coli isolates; assay type: cell-based; conditions: Escherichia coli; n=111, isolates from Spain, Poland, Denmark and Wales
Method: (§1) Minimum inhibitory concentration (MIC) values were determined according to the Clinical Laboratory Standards Institute guidelines. Frequency of resistance was determined by plating ~5 × 10^8 bacterial cells on agar-solidified media plates containing test compound at concentrations corresponding to four times the measured solid-media MIC of the strains. Colonies were counted after 24 h, restreaked onto media containing the same concentration of compound, and the MIC remeasured against the assayed compound. Genomic DNA from isolated clones was sequenced by paired-end sequencing on an Illumina MiSeq device. Complete experimental details available in SI Appendix. […]
(§2) Minimum inhibitory concentration (MIC) determination. Broth microdilution and agar dilution MIC assays were conducted according to CLSI guidelines (M07-2012). Appropriate inoculation suspension density was assessed using a Sensititre Nephelometer with a Sensititre 0.5 […]
(§3) McFarland Standard. […]
To determine the […]
genotype of MDR strains from the ENABLE strain collection, de novo assembled contigs were analyzed using ResFinder (12–14) […]
MIC distribution versus E. coli (n=111)
Clinical Isolates from Spain, Poland, Denmark and Wales
Figure S4. MIC distribution and MIC90 versus clinical E. coli isolates
MIC distribution versus K. pneumoniae (n=104)
Figure S5. MIC distribution and MIC90 versus clinical K. pneumoniae isolates […]

[3] = system: clinical MDR E. coli isolates; test: MIC, clinical multi-drug resistant E. coli isolates; assay type: cell-based; conditions: Escherichia coli
Method: as §1, §2, §3
Whole-genome sequencing and data analysis. Genomic DNA of selected clones was prepared using an Epicentre MasterPure Complete DNA Purification Kit. Whole-genome sequencing libraries were prepared using an Illumina Nextera XT Library Preparation Kit. The libraries were sequenced using an Illumina MiSeq device with a V3 600-cycle reagent kit. Whole-genome sequencing data was analyzed using CLC Genomics Workbench Version 11. To determine the genotype of MDR strains from the ENABLE strain collection, de novo assembled contigs were […]

[4] = system: P. aeruginosa PAO1 and efflux-defective PAO750; test: MIC, P. aeruginosa laboratory strains; assay type: cell-based; conditions: Pseudomonas aeruginosa
Method: as §1
Minimum inhibitory concentration (MIC) determination. Broth microdilution and agar dilution
MIC assays were conducted according to CLSI guidelines (M07-2012). Appropriate inoculation
suspension density was assessed using a Sensititre Nephelometer with a Sensititre 0.5
as §3

[5] = PAO1, read-out: MIC P. aeruginosa PAO1
[6] = PAO1, read-out: MIC P. aeruginosa PAO750

Row | Structure (SMILES) | Tolerability / adverse reactions in mice [1] | MIC90 [2] [µg/mL] | MIC ([3]; read-out: MIC E. coli EN0134) [µg/mL] | MIC ([3]; read-out: MIC E. coli EN0135) [µg/mL] | MIC ([3]; read-out: MIC E. coli EN0136) [µg/mL] | MIC ([3]; read-out: MIC E. coli EN0137) [µg/mL] | MIC ([3]; read-out: MIC E. coli EN0138) [µg/mL] | MIC ([3]; read-out: MIC E. coli EN0139) [µg/mL] | MIC ([3]; read-out: MIC E. coli EN0303) [µg/mL] | MIC ([3]; read-out: MIC E. coli EN0481) [µg/mL] | MIC [4, 5] [µg/mL] | MIC [4, 6] [µg/mL]
1 | Cc1cc(C#N)nc(N2CCN(S(=O)(=O)c3ccc(NC(=O)c4cc(CNCCCN)ccc4N(C)S(C)(=O)=O)cc3)CC2)n1.Cl.Cl [EBL-3599] | well tolerated | 4 | 2 | 2 | 2 | 4 | 2 | 4 | 16 | 2 | > 64 | 64
2 | Cc1cc(C#N)nc(N2CCN(S(=O)(=O)c3ccc(NC(=O)c4cc(CN5CC(CN)C5)ccc4N(C)S(C)(=O)=O)cc3)CC2)n1 [EBL-3647] | well tolerated | 4 (≈ 5.99 µM) | 2 (≈ 2.99 µM) | 2 (≈ 2.99 µM) | 4 (≈ 5.99 µM) | 2 (≈ 2.99 µM) | 4 (≈ 5.99 µM) | 4 (≈ 5.99 µM) | 16 (≈ 24 µM) | 1 (≈ 1.5 µM) | > 64 | 64 (≈ 95.8 µM)
